Test results as given in patent publication US5010076A, “1,7-fused 1H-indole-2-carboxylic acid-N-(1,4-benzodiazepin-3-yl)amides” (Kali-Chemie Pharma GmbH, priority 1989, dated 1991).
No end group written: not given here.

How the values were obtained:
[1] = system: CCK-induced disturbance of stomach emptying; test: effect of test substances on CCK-induced disturbances of emptying of the stomach (charcoal transport into duodenum); type: in vivo, mouse (female NMRI)
Protocol: Doses of CCK lead to substantial blockade of the transpyloric transport of chyme from the stomach into the duodenum. The ability of the test substances to eliminate this blocking effect of CCK was investigated.
Female NMRI mice having body weights of 20-25 g were used in groups of ten animals each. […] A control group received only the Tylose® solution or the solution containing the solubilizer polyethylene glycol in each case. 60 minutes later the animals were given a subcutaneous injection of 80 Ig/kg CCK-8. After a further 5 minutes the animals were each orally administered 0.3 ml of a charcoal suspension (5% charcoal in 2% strength Tylose solution). The mice were sacrificed 5 minutes later and subsequently dissected. They were examined to find whether charcoal suspension had advanced into the duodenum.
The percentage of animals in which the CCK effect was eliminated and charcoal suspension was found in the duodenum after administration of the test substances was determined.

[2] = system: CCK-induced gallbladder emptying; test: inhibitory effect of test substances on CCK-induced gallbladder emptying (gallbladder weight); type: in vivo, mouse (female NMRI)
Protocol: CCK causes a contraction of the muscles of the gallbladder and thus an emptying of the gallbladder. […] Intraperitoneal doses of 0.1 μg/kg CCK-8 may result in the weight of the gallbladders decreasing to about 1/10 of the original weight.
Female NMRI mice having a body weights of 20-25 g were used in groups of 10 animals each. After withdrawal of feed for 24 hours (drinking water ad libitum) the animals received an oral dose of the test substance suspended in a volume of 10 ml/kg of body weight of a 1% strength Tylose® solution (=methylcellulose) or in a volume of 10 ml/kg of body weight of a solubilizer solution which contained 5% glycerol, 87% polyethylene glycol 400, and 8% water. Two control groups each received only the Tylose® solution or the solution containing the solubilizer polyethylene glycol. One of the control groups and all the animals treated with test substance received 0.1 Ig/kg CCK-8 injected i.p. 60 minutes later.
The mice were sacrificed 5 minutes after the CCK-8 administration, and the gallbladders were excised and weighed.
The following Table C lists the percentage inhibition of the CCK-8 effect on gallbladder weights caused by the test substances.

[3] = molecular target: T1, peripheral CCK receptors (pancreas) (Rattus norvegicus, UniProt P30551); test: peripheral CCK receptor binding affinity on rat pancreas homogenate (inhibition of 3[H]-CCK-8 binding); design: species or system rat (male Wistar); conditions: 0.3 nM 3[H]-CCK-8, 90 min, 25° C., pH 7.4, calculated from IC50 by Cheng-Prusoff, read-out: In vitro binding to peripheral CCK receptors (pancreas) pKi values (converted)
T1 construct: Whole pancreas glands from male Wistar rats with a body weight of 150-300 g; from tissue; host or cells: whole pancreas glands of male Wistar rats, washed homogenate
T1 sequence (P30551 1-444): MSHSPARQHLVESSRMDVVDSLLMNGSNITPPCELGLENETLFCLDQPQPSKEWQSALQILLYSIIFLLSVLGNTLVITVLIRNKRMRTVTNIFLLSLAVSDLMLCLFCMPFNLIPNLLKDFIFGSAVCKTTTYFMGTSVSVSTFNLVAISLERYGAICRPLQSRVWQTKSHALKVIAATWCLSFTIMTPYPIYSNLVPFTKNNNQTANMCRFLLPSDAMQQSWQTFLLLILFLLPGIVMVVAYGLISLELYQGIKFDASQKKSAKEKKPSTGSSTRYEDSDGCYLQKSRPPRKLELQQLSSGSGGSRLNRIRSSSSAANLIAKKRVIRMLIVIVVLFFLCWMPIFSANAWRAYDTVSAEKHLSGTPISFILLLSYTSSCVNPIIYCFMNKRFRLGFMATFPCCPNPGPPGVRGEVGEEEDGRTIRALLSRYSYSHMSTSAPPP
Protocol: The affinity of the compounds of formula I for peripheral CCK receptors was measured in vitro on rat pancreas homogenate. The inhibition of the binding of the physiologically relevant octopeptide CCK-8 to peripheral CCK receptors by the test substances was determined.
The receptor binding studies were carried out by a modification of the method of van Dijk et al. (J. Neuroscience 4 (1984), 1021-1033), using soya bean trypsin inhibitor (=SBTI) as protease inhibitor. ^3 [H]-CCK-8, code TRK 775, from Amersham Int., having a specific activity of 60-90 Ci/mmol, was used as tritium-labelled CCK-8.
Whole pancreas glands from male Wistar rats with a body weight of 150-300 g, which had been sacrificed by decapitation, were freed of fatty tissue and homogenized for 15 seconds in a 50-fold volume of an ice-cold test buffer solution (10 mmol 2-[4-(2-hydroxyethyl)-piperazin-1-yl]-ethanesulfonic acid (=HEPES), 130 mmol sodium chloride, 5 mmol magnesium chloride, 0.02% bacitracins, 0.01% SBTI, pH 7.4) with a Kinematica Polytron type homogenizer. The homogenates were then centrifuged at 48,000 g for 10 minutes. This washing method was repeated. After the last centrifugation, the residue which was obtained each time in the form of a pellet was suspended in a 550-fold volume of the test buffer solution and immediately used for the measurement.
For the binding test, 500 μl of the tissue homogenate were incubated with 50 μl of test buffer solution or 50 μl of a solution of the compound to be investigated and with 50 μl of a ^3 [H]-CCK-8 solution (final concentration 0.3 nM). The non-specific binding was assumed to be 0.1 μmol CCK-8. The incubation lasted 90 minutes at 25° C. All the compounds were measured 3 times at each of several concentrations.
Aqueous solutions were employed as test substance solutions and were prepared by appropriate dilution of 60×10^-4 molar aqueous stock solutions. Test substances which are sparingly soluble in water were first dissolved in 96% ethanol, and this solution was diluted with sufficient water for the ethanol concentration not to exceed 1.6% by volume in the solution to be tested.
Bound and free ^3 [H]-CCK-8 were separated by filtration through glass fiber filters. The filters were washed twice with 3 ml of HEPES solution each time and then placed in the scintillation solution (SAVE scintillation solution from Packard) in the dark overnight and counted in a Packard TriCarb 1500™liquid scintillation counter. The IC50 of the respective test substance was determined to be that concentration which caused a 50% inhibition of the specific binding of tritiated CCK-8 to the receptors. From this, the corresponding pKi value was calculated using the Cheng-Prusoff equation. […]

[4] = determination of the minimum toxic dose; type: in vivo, mouse (male); conditions: mouse, oral; lowest dose causing death or serious symptoms of toxicity; max 300 mg/kg; 24 h
Protocol: Male mice weighing 20-25 g were given maximum oral doses of 300 mg/kg of the test substance. The animals were observed carefully for three hours for symptoms of toxicity. In addition, all symptoms and deaths were recorded for a period of 24 hours after administration. Concomitant symptoms were likewise observed and recorded. If death or serious symptoms of toxicity were observed, further mice were given increasingly lower doses. The lowest dose which caused death or serious symptoms of toxicity is indicated in the following Table A as the minimum toxic dose.

[5] = dose 0.215 μmol/kg mouse oral, CCK-8 s.c. 60 min later
[6] = dose 10 μmol/kg mouse oral, CCK-8 i.p. 60 min later
[7] = dose 1.0 μmol/kg mouse oral, CCK-8 s.c. 60 min later
[8] = dose 100 μmol/kg mouse oral, CCK-8 i.p. 60 min later

Compound | Ki [3] [nM] | % Inhibition of CCK-induced Gallbladder Emptying [2, 6] [%] | Minimum toxic dose [4] [mg/kg] | % of Animals in which the CCK Effect was Eliminated [1, 7] [%] | other results
COc1ccc2c(c1)N(C)C(=O)C(NC(=O)c1cc3cccc4c3n1CCC4)N=C2c1ccccc1 (single isomer, unassigned; (+)) [Example 2b, (+)-3-[(4H-pyrrolo[3,2,1-ij]-5,6-dihydroquinoline-2-carbonyl)-amino]-8-methoxy-1-methyl-2-oxo-5-phenyl-1H-2,3-dihydro-1,4-benzodiazepine] | 19.5 | – | – | – | % of Animals in which the CCK Effect was Eliminated ([1]; dose 10 μmol/kg mouse oral, CCK-8 s.c. 60 min later): 70%; % Inhibition of CCK-induced Gallbladder Emptying ([2]; dose 46 μmol/kg mouse oral, CCK-8 i.p. 60 min later): 8.3%
CCK-8: the octapeptide CCK-8 is the smallest unit with the complete spectrum of CCK effects (DYMGWMDF; ends and bridges not checked; UniProt P06307 96-103, looked up) [reference compound] | – | – | – | – | animals with traces of charcoal suspension in the duodenum ([1]; control animals which received a dose of CCK (80 Ig/kg CCK-8 subcutaneous), no test substance): not more than 5%; weight of the gallbladders decreasing to fraction of the original weight ([2]; intraperitoneal 0.1 μg/kg CCK-8): about 1/10
COc1ccc2c(c1)N(C)C(=O)C(NC(=O)c1cc3cccc4c3n1CCC4)N=C2c1ccccc1 (centres unmarked) [Example 1, 3-[(4H-Pyrrolo[3,2,1-ij]-5,6-dihydroquinoline-2-carbonyl)-amino]-8-methoxy-1-methyl-2-oxo-5-phenyl-1H-2,3-dihydro-1,4-benzodiazepine] | 1.35 | 66 | > 300 | – | % of Animals in which the CCK Effect was Eliminated [1, 5]: 50%; % Inhibition of CCK-induced Gallbladder Emptying ([2]; dose 1 μmol/kg mouse oral, CCK-8 i.p. 60 min later): < 25%
CN1C(=O)C(NC(=O)c2cc3cccc4c3n2CC4)N=C(c2ccccc2)c2ccccc21 (centres unmarked) [Example 33] | 3.72 | 19 | > 300 | 50 | –
COc1ccc2c(c1)N(C)C(=O)C(NC(=O)c1cc3cccc4c3n1CCC4)N=C2c1ccccc1 (single isomer, unassigned; (-)) [Example 2a, (-)-3-[(4H-pyrrolo[3,2,1-ij]-5,6-dihydroquinoline-2-carbonyl)-amino]-8-methoxy-1-methyl-2-oxo-5-phenyl-1H-2,3-dihydro-1,4-benzodiazepine] | 0.257 | – | – | – | % of Animals in which the CCK Effect was Eliminated ([1]; dose 0.1 μmol/kg mouse oral, CCK-8 s.c. 60 min later): 100%; % Inhibition of CCK-induced Gallbladder Emptying ([2]; dose 0.46 μmol/kg mouse oral, CCK-8 i.p. 60 min later): 16%
CN1C(=O)C(NC(=O)c2cc3cccc4c3n2CCC4)N=C(c2c(F)cccc2F)c2ccccc21 (centres unmarked) [Example 20] | 0.851 | 25 | > 300 | 50 | –
CN1C(=O)C(NC(=O)c2cc3cccc4c3n2CCC4)N=C(c2ccccc2)c2ccccc21 (centres unmarked) [Example 6, 3-[(4H-Pyrrolo[3,2,1-ij]-5,6-dihydroquinoline-2-carbonyl)-amino]-1-methyl-2-oxo-5-phenyl-1H-2,3-dihydro-1,4-benzodiazepine] | 3.24 | 73 | – | – | % of Animals in which the CCK Effect was Eliminated ([1]; dose 0.681 μmol/kg mouse oral, CCK-8 s.c. 60 min later): 40%
COc1ccc2c(c1)N(C)C(=O)C(NC(=O)c1cc3cccc4c3n1CCC4)N=C2c1ccccc1F (centres unmarked) [Example 9] | 0.794 | – | > 300 | – | % of Animals in which the CCK Effect was Eliminated [1, 5]: 50%; % Inhibition of CCK-induced Gallbladder Emptying ([2]; dose 4.6 μmol/kg mouse oral, CCK-8 i.p. 60 min later): < 25%; % Inhibition of CCK-induced Gallbladder Emptying [2, 8]: 99%
COc1ccc2c(c1)N(C)C(=O)C(NC(=O)c1cc3cccc4c3n1CCC4)N=C2c1ccc(F)cc1F (centres unmarked) [Example 15] | 1.23 | < 25 | – | 57 | % of Animals in which the CCK Effect was Eliminated ([1]; dose 0.10* μmol/kg mouse oral, * = administered in solution containing solubilizer (PEG 400)): 90%; % Inhibition of CCK-induced Gallbladder Emptying [2, 8]: 100%; % Inhibition of CCK-induced Gallbladder Emptying ([2]; dose 0.1* μmol/kg mouse oral, * = administered in solution containing solubilizer): < 25%
